{"source": "patent US20230323463A1", "about": "“COMPOSITIONS AND METHODS FOR DETECTING BCL2L14 AND ETV6 GENE FUSIONS FOR DETERMINING INCREASED DRUG RESISTANCE” (UNIVERSITY OF PITTSBURGH-OF THE COMMONWEALTH SYSTEM OF …, priority 2020, published 2023)", "type_in_all_cases": "cell-based, human", "key": {"[1]": {"system": "engineered stable BT20 cells", "assay": "Clonogenic assay after prolonged paclitaxel treatment, BT20", "details": "5 nM paclitaxel, one month", "method": "(§1) Cell proliferation and clonogenic assays. Engineered stable BT20 cells were seeded at a density of 3,000 cells/well in a 96-well plate. Cell proliferation was measured by MTS assay at different time points using CellTiter 96 AQueous One Solution Cell Proliferation Assay (Promega). For paclitaxel dose curve, stable BT20 cells were seeded at a density of 5000 cells/well in a 96-well plate and treated with vehicle or different doses of paclitaxel. Cell proliferation was measured by MTS assay after 72 hours of treatment. For clonogenic assay, stable BT20 or MCF10A cells were seeded at a density of 10,000 cells/well in a 24-well plate. After attachment to the plate, cells were treated with 0.1% DMSO (vehicle) or paclitaxel at 5 nM for BT20 cells for 6 days or 15 nM for MCF10A cells for 5 days before replacement of the chemical with fresh growth medium. The remaining colonies were growing in the plate for one month and then stained with 0.5% crystal violet in 50% ethanol and counted using ChemiDoc photography (Bio-Rad) and ImageJ."}, "[2]": {"system": "engineered stable BT20 cells", "assay": "Paclitaxel dose curve, cell proliferation by MTS assay", "details": "BT20 cells expressing BCL2L14-ETV6 fusions vs vector or wtETV6; short-term (72 h) treatment, various doses", "method": "as §1"}, "engineered BT20 cells": {"system": "engineered BT20 cells", "assay": "Apoptotic biomarkers by immunoblotting after paclitaxel treatment", "details": "BT20 cells overexpressing BCL2L14-ETV6 fusions vs wtETV6-expressing cells; 48 hours", "experimental": "Western blot. For immunoblot analysis, total proteins were extracted by homogenizing the cells in NP40 Lysis Buffer supplemented with complete protease inhibitor cocktail tablet (Roche), 1 mM DTT, and 1 mM PMSF. 20~50 micrograms of protein extracts were denatured in sample buffer, separated by SDS-PAGE, and transferred onto a PVDF membrane (GE). The membranes were blocked and then incubated for 1 h at room temperature or overnight at 4° C. with primary antibodies, followed by incubation with respective horseradish peroxidaseconjugated secondary antibody. The signals were then visualized by the enhanced chemiluminescence system (Clarity Western ECL Substrate and ChemiDoc imaging system, Bio-Rad)."}, "[3]": {"system": "engineered stable MCF10A cells", "assay": "Clonogenic assay after prolonged paclitaxel treatment, MCF10A", "details": "MCF10A cells expressing BCL2L14-ETV6 fusions vs vector or wtETV6; 15 nM paclitaxel, one month", "method": "as §1"}}, "note": "“Also recorded” adds a separate entry of the source.", "data": [{"smiles": "CC(=O)O[C@H]1C(=O)[C@@]2(C)[C@H]([C@H](OC(=O)c3ccccc3)[C@]3(O)C[C@H](OC(=O)[C@H](O)[C@@H](NC(=O)c4ccccc4)c4ccccc4)C(C)=C1C3(C)C)[C@]1(OC(C)=O)CO[C@@H]1C[C@@H]2O", "note": "[paclitaxel]", "values": [{"measurement": "clonal resistance to paclitaxel", "setting": "[1]; BT20 cells expressing BCL2L14-ETV6 fusions (E2E3, E4E3, E4E2)", "result": "evident clonal resistance; also recorded: clonal resistance in BT20 cells"}, {"measurement": "clonal survival after paclitaxel", "setting": "[1]; BT20 cells expressing wtETV6 or vector control", "result": "almost eradicated"}, {"measurement": "sensitivity to paclitaxel (cell viability)", "setting": "[2]", "result": "modest reduced sensitivity; also recorded: increased resistance"}, {"measurement": "apoptosis biomarkers following paclitaxel treatment", "setting": "engineered BT20 cells", "result": "did not show evident reduced apoptosis"}, {"measurement": "clonal resistance to paclitaxel", "setting": "[3]", "result": "increased clonal resistance; also recorded: clonal resistance in MCF10A cells"}]}]}
